Data reported in patent US20110218244A1, “CREATINE ß-ALANINATE: A NOVEL SALT FOR INCREASING […] PERFORMANCE” (priority 2009, published 2011).
Like-named read-outs stand apart in the source and are kept apart here.

How the values were obtained:
individuals = settings: cited from earlier work
[1] = test system: intramuscular carnosine content; settings: after 10 week supplementation; cited from earlier work

In the case of anserine, the paraesthesia symptoms (individuals; in vivo) is given as “do not cause the same symptoms”.
For `NCCC(=O)O` [β-alanine, 3-Aminopropanoic acid], the “amount above which ingestion causes paraesthesia” value (individuals; in solution or as powder in gelatin capsules) is listed as “above 10 mg per kg body weight”, the “time at which paraesthesia begins after oral administration” value (individuals; oral) is listed as “about 20 minutes” and the “increase in intramuscular carnosine content, average” value [1] is listed as 80%.
With creatine β-alaninate the “more β-alanine administrable before eliciting symptoms of paraesthesia, compared with β-alanine alone” value (human subjects; administered as creatine β-alaninate) was “roughly 100%”, the “single dose administered before the onset of parasthesia was noted” value (human subjects; oral, gelatin capsules, human subjects) was “up to 55.00 mg/kg” and the “equivalent β-alanine dose before the onset of parasthesia” value (human subjects; salt mass consists of about 40.45% β-alanine) was “about 22.25 mg/kg”.
In the case of `NCCC(=O)N[C@@H](Cc1cnc[nH]1)C(=O)O` [carnosine, β-alanyl-L-histidine], the paraesthesia symptoms (individuals; greater quantities, ingested as dipeptides in meat) is given as “do not cause the same symptoms”.
